According to patent US8962845B2, “Pyrazole compounds” (National Health Research Institutes, priority 2011, dated 2015):

Legend:
[1] = tested on: diet-induced obese mice; experiment: Treatment of diet-induced obese mice; format: in vivo, C57BL/6 mice; conditions: 21 days
Experimental: Six-week-old C57BL/6 mice were given high-fat diet (Research Diet D 12451; 45% fat, 20% protein, and 35% carbohydrate) for more than 12 weeks before treated with a test compound. Mice weight matched were assigned to different groups and orally gavaged once daily with a vehicle (10% DMSO/10% Tween 80/80% H2O) or a test compound at a defined dosage (e.g., 10 and 20 mg/kg) for at least two weeks. The sum of food taken for each treatment and the body weight were measured daily.

[2] = tested on: male C57BL/6 mice; experiment: Tetrad response test (body temperature, tail-flick after CP55,940); format: in vivo; conditions: CP55,940 1 mg/kg i.p.
Experimental: Body temperature and tail-flick responses were measured by rectal thermometer (Natsume, Japan) and tail-flick analgesia meter RS232 (Columbus, USA), respectively, in male C57BL/6 mice. One hour after oral administration of a test compound dissolved in DMSO/Tween 80/H2O (1/1/8 by volume), 1 mg/kg of CP55,940 in saline containing 0.5% DMSO was injected intraperitoneally. Body temperature was measured at a time point of 30 and 65 min, and tail flick response was measured at a time point of 35 min after the injection.

[3] = tested on: estrogen deficiency-induced osteoporosis mice; experiment: Treatment of estrogen deficiency-induced osteoporosis mice; format: in vivo; conditions: ovariectomized mice, 5 days per week for 2, 4, and 8 weeks; for trabecular bone microstructure: μCT
Experimental: Three-month-old female mice were subjected to bilateral ovariectomy or sham operation. Two weeks postoperatively, a CB1 antagonist (i.e., compounds 10, 63, and 119) or vehicle was administered 5 days per week for 2, 4, and 8 weeks. Bone mineral density and bone mineral contents in femurs, tibiae, and L1-L5 spine were measured by dual energy x-ray absorptiometry. Trabecular bone microstructure (i.e., trabecular bone volume, thickness, number, separation, porosity, and bone volume index) in femurs, tibiae and spine were analyzed by μCT scanning Mechanical strength of the bones was detected by a material test machine.

[4] = tested on: osteoarthritic rats; experiment: ACLT-induced knee osteoarthritis; format: in vivo, Sprague-Dawley rats; conditions: 8 weeks
Experimental: Four-month-old male Sprague-Dawley rats were anesthetized using intramuscular atropine (1 mg/kg) and intraperitoneal pentobarbital. The left knees of rats underwent medial parapatellar arthrotomy and transection of the anterior cruciate ligament (ACLT) to induce knee osteoarthritis. The osteoarthritic rats were given a CB1 antagonist (i.e., compounds 10, 63, and 119) or vehicle for 8 weeks. Knee joint radiography was evaluated by a mammography system. Gait profiles of joints in osteoarthritic rats were analyzed by a CatWalk system. Joint morphology was histologically evaluated by a Mankin scoring system.

[5] = tested on: diabetic rats; experiment: Streptozotocin-induced diabetic nephropathy and kidney fibrosis; format: in vivo, Wistar rats; conditions: 4 weeks; for kidney fibrosis: periodic acid-Schiff staining
Experimental: Three-month-old male Wistar rats were given intraperitoneal streptozotocin (50 mg/kg) to induce diabetes. Two weeks later, diabetic rats that had fasting blood glucose levels of […] were selected for studies. Caged in a metabolic cage system, the diabetic rats were administered a CB1 antagonist (i.e., compounds 10, 63, and 119) for 4 weeks while their urine was collected. To evaluate renal function, protein and creatinine levels in urine were measured by ELISA. To evaluate renal fibrosis, kidneys were dissected, fixed, paraffin wax embedded, and sectioned for histologic assessment after periodic acid-Schiff staining.

| SMILES | relative weight-loss rate ([1]; rimonabant comparison, dose not given) | reversal of CB1 agonist-induced analgesic response ([2]; dose as low as 2 mg/kg) | reversal of CB1 agonist-induced hypothermia ([2]; dose as low as 2 mg/kg) | bone mineral density [3] | trabecular bone microstructure [3] | Mankin score [4] | urine albumin level [5] | kidney fibrosis [5] | reversal of CB1 agonist-induced analgesic response ([2]; oral dose up to 100 mg/kg) | reversal of CB1 agonist-induced hypothermia ([2]; oral dose up to 100 mg/kg) | relative weight-loss rate ([1]; 10 mg/kg group, oral once daily) | relative weight-loss rate ([1]; 20 mg/kg group, oral once daily) |
| --- | --- | --- | --- | --- | --- | --- | --- | --- | --- | --- | --- | --- |
| Cc1c(C(=O)NN2CCCCC2)nn(-c2ccc(Cl)cc2Cl)c1-c1ccc(Cl)cc1 [rimonabant, reference compound] | 29.1% | significantly reversed | significantly reversed |  |  |  |  |  |  |  |  |  |
| O=C(NN1CCCCC1)c1nn(-c2ccc(Cl)cc2Cl)c(-c2ccc(Cl)cc2)c1CNS(=O)(=O)N1CCCC1 [Compound 119, 5-(4-Chlorophenyl)-1-(2,4-dichlorophenyl)-N-(piperidin-1-yl)-4-((pyrrolidine-1-sulfonamido)methyl)-1H-pyrazole-3-carboxamide] |  |  |  | increase | improvement | reduction | decrease | reduction | did not reverse or slightly reversed | did not reverse or slightly reversed |  |  |
| CCCC#Cc1ccc(-c2c(CNS(=O)(=O)N3CCCCC3)c(C(=O)NN3CCCCC3)nn2-c2ccc(Cl)cc2Cl)s1 [Compound 63, 1-(2,4-Dichlorophenyl)-5-(5-(pent-1-ynyl)thiophen-2-yl)-N-(piperidin-1-yl)-4-((piperidine-1-sulfonamido)methyl)-1H-pyrazole-3-carboxamide] |  |  |  | increase | improvement | reduction | decrease | reduction | did not reverse or slightly reversed | did not reverse or slightly reversed |  |  |
| O=C(NN1CCCCC1)c1nn(-c2ccc(Cl)cc2Cl)c(-c2ccc(C#Cc3ccc(C(F)(F)F)cc3)s2)c1CNS(=O)(=O)N1CCCC1 [Compound 10, 1-(2,4-Dichlorophenyl)-N-(piperidin-1-yl)-4-((pyrrolidine-1-sulfonamido)methyl)-5-(5-((4-(trifluoromethyl)phenyl)ethynyl)thiophen-2-yl)-1H-pyrazole-3-carboxamide] |  |  |  | increase | improvement | reduction | decrease | reduction | did not reverse or slightly reversed | did not reverse or slightly reversed | 26.4% | 32.8% |
